Assay results as given in article PMC7559934, “Characterization of Resveratrol, Oxyresveratrol, Piceatannol and Roflumilast as Modulators of Phosphodiesterase Activity. Study of Yeast Lifespan” (Pharmaceuticals, 2020).

Experiments:
[1] = target: T1, yPDE2 (high-affinity phosphodiesterase type 2) (Saccharomyces cerevisiae, UniProt P06776); assay: HPLC-UV assay of cAMP hydrolysis; Ki converted from I50 (competitive equation); assay type: biochemical; conditions: read-out: Inhibitors
T1 construct: gene PDE2
T1 sequence (P06776 1-526): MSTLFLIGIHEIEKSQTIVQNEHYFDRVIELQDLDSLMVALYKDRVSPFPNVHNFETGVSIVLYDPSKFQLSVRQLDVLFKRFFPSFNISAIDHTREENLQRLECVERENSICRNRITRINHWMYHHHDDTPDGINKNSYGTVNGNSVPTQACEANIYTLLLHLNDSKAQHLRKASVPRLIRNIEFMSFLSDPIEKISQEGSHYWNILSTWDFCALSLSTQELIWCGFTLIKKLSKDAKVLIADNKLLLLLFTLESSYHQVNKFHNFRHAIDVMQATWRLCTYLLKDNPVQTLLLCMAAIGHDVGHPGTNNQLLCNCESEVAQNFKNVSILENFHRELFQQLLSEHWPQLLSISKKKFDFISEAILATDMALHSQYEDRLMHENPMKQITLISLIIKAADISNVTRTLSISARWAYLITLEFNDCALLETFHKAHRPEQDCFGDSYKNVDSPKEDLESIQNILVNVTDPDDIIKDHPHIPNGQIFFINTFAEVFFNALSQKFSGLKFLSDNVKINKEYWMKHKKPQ

[2] = target: T1, yPDE2 (high-affinity phosphodiesterase type 2); assay: HPLC-UV assay of cAMP hydrolysis; Lineweaver-Burk and Km app/Km plot at several inhibitor concentrations; assay type: biochemical; conditions: read-out: Inhibitors

SMILES: Oc1cc(O)cc(/C=C/c2ccc(O)cc2O)c1 [oxyresveratrol]
- Ki [1]: 46 ± 4 µM

SMILES: Oc1cc(O)cc(/C=C/c2ccc(O)c(O)c2)c1 [piceatannol]
- Ki [1]: 50 ± 5 µM

SMILES: Oc1ccc(/C=C/c2cc(O)cc(O)c2)cc1 [resveratrol]
- Ki [2]: 63 ± 3 µM

SMILES: O=C(Nc1c(Cl)cncc1Cl)c1ccc(OC(F)F)c(OCC2CC2)c1 [roflumilast]
- Ki [1]: 0.3 ± 0.02 µM
